# Source: ChEMBL document CHEMBL5370594, “Novel Compounds for Preventing SARS-CoV-2 Viral Replication and Treating COVID-19” (ACS Med Chem Lett, 2023)
# Biological target: Replicase polyprotein 1ab (Severe acute respiratory syndrome coronavirus 2, UniProt P0DTD1)
# Test: Inhibition of full-length recombinant SARS-CoV-2 3CL protease expressed in Escherichia coli BL21 (DE3) using FAM- KTSAVLQSGFRKMEK-TAMRA as substrate pre-incubated for 1 hr with compound followed by substrate addition measured after 30 mins by FRET analysis
row,SMILES,IC50 [nM]
1,CC[C@H](C)[C@H](NC(=O)C(F)(F)C(F)(F)F)C(=O)N1C[C@@H]2CCC[C@@H]2[C@H]1C(=O)NN(C[C@@H]1CCNC1=O)C(=O)[C@H](F)Cl,6
2,CC(C)(C)[C@H](NC(=O)C(F)(F)F)C(=O)N1C[C@H]2[C@@H]([C@H]1C(=O)NN(C[C@@H]1CCNC1=O)C(=O)CCl)C2(C)C,6
3,CCC(CC)[C@H](NC(=O)C(F)(F)F)C(=O)N1C[C@H]2[C@@H]([C@H]1C(=O)NN(C[C@@H]1CCNC1=O)C(=O)[C@H](F)Cl)C2(C)C,7
